Data as given in US20040229960A1, “Compositions and methods of administering tubulin binding agents for the treatment of ocular diseases” (priority 2001, published 2004).

Assays:
[1] = Biodistribution of 14C-CA4P following subconjunctival injection; assay type: in vivo, New Zealand rabbits
Description: (§1) ^14C-CA4P (OXiGENE Inc., Watertown, Mass.) was resuspended in 100 ul volume of saline solution and injected with a 30 G needle into the right eyes of anesthesized male New Zealand rabbits (4 months old, 1.8-2.5 kg, n=3 per sample). Three different concentrations of ^14C-CA4P were tested (1, 10, 100 mg/ml) corresponding to doses of 1, 5, and 5 uCi of applied radioactivity respectively. A blank control group was also included. Rabbits were anaesthetized at 1, 6, 24, and 48 hours for blood sampling. After blood collection, the animals were euthanized by Phenobarbital injection and the treated right eyes were removed from all test animals. Ocular tissue samples were dissected from the cornea, aqueous humor, vitreous humor, choroid, or retina, placed in 20-mi glass scintillation vials, vortexed, and incubated for 24 hrs with 500 ul digesting fluid. Plasma was separated from whole blood by centrifugation (1,800 g for 10 minutes). Both ocular tissue samples and plasma were incubated at room temperature with 16 ml of Hionic Fluor™ scintillation fluid for a period of 24 hours prior to radioactivity counting. Each sample was counted for 5 minutes in a Betamatic V counter (Bio-Tek Kontron Instruments, St Quentin en Yvelines, France). The conversion of counts per minute (“cpm”) into disintegrations per minute (“dpm”) was performed automatically by the beta-counter, using calibration curves obtained from ^14C-standards and quenching curves from the respective blank matrices spiked with ^14C-standards. The concentration of drug was determined according to nanogram equivalents of CA4P (ng-Eq/g of tissue) which was calculated from the measured dpm value, the weight of the tissue specimen, and the specific activity of the drug (0.37 mCi/mg), followed by subtraction of the corresponding background value from control eye tissue. A tissue concentration of 1 uM CA4P is equal to […] tissue.
Subconjuctival injections were administered at doses of 0.1, 1, 10, and 100 mg/ml. ^14C-CA4P solutions were formulated with 0.24% 10N KOH and 0.01% Benzalkonium chloride and injected in a volume of 100 ul. Animals were treated at an applied dose of 5 uCi with a single subconjunctival injection in right eyes. After delivery, the eye was gently held closed for 2-5 seconds.

[2] = Biodistribution of 14C-CA4P following intravitreal injection; assay type: in vivo, New Zealand rabbits
Description: as §1

[3] = test system: ocular neovascularization; assay: LHP-induced ocular neovascularization, intravenous treatment; assay type: in vivo, rabbit; settings: 40 mg/kg i.v. once a day for five days; eyes examined seven days later
Description: To simulate pathogenic ocular angiogenesis, ocular neovascularization was induced by administration of lipid hydroperoxide (LHP) by intra-corneal injection at a dosage of 30 μg to rabbit eyes. Seven to 14 days later, ocular vessels formed in the injected eyes due to LHP insult. The subjects were divided into two groups; those of one group were given combretastatin A4 disodium phosphate by intravenous administration at a dosage of 40 mg/kg once a day for five days, while a vehicle without combretastatin A4 disodium phosphate was administered to the other group by i.v. administration as a dosage of water for the same time period. The eyes of both groups were examined seven days later.

[4] = test system: choroidal neovascularization; assay: Krypton laser murine model of choroidal neovascularization; assay type: in vivo, C57BL/6J mouse; settings: for Average Vessel Lumen Area: vehicle 0.0129886
Description: Choroidal neovascularization is a major cause of severe vision loss in patients with age-related or wet macular degeneration. To investigate the capacity of CA4P to inhibit vascular growth in the choroids, a murine model of Choroidal Neovascularization was tested. In this model the investigator used a krypton laser to create a wound on the Bruch's membrane of a C57BL/6J mouse. Each eye received several burns. The burn elicited a classic wound-healing response that included neovascularization within the choroid. This krypton laser photocoagulation method has been described in Tobe et al., Am. J. of Pathology, 1998, 153(5):1641-6. […] Histopathology and fluorescein angiography were used to identify neovascularization surrounding the burn. Electron microscopy was used to measure the lumen diameter of fenestrated neovasculature within the choroidal neovascular lesions. Table 12 illustrates the results of CA4P treatment on the average vessel lumen area.

[5] = test system: oxygen-induced retinal neovascularization; assay: Murine model of oxygen-induced retinal neovascularization (ROP); assay type: in vivo; settings: neonatal mouse treated upon removal from hyperoxic conditions
Excerpt: The inner retina of the mammalian eye receives oxygen from the superficial retinal capillary bed. This capillary bed is located beneath the inner limiting membrane which serves as the interface between the inner retina and the outer avascular vitreous. The pathology of retinal neovascularization or retinopathy arises from ischemia-induced growth of neovasculature beyond the retinal inner limiting membrane and into the vitreous, causing severe loss of vision and frequently leading to retinal detachment. […] In this model neonatal mice are exposed to sustained hyperoxic conditions (75% oxygen for 7 days) that inhibit the development of the superficial retinal capillary bed. When a mouse pup is removed from the pure oxygen environment and placed in the relative hypoxia of environmental oxygen, the underdeveloped superficial retinal capillary bed is unable to deliver sufficient quantities of oxygen to the retina. […]
It is expected that the treatment of a neonatal mouse with CA4P immediately upon its removal from hyperoxic conditions would be an effective treatment method for ROP. Retinal neovascularization can be quantified by counting the number chemically stained nuclei of penetrating endothelial cells in retinal tissue section of treated and untreated eyes according to existing methods (Majka et al., Invest. Ophthalmol. Vis. Sci. 2001, 42: 210-15).

COc1ccc(/C=C\c2cc(OC)c(OC)c(OC)c2)cc1OP(=O)([O-])[O-].[Na+].[Na+] [CA4P, combretastatin A4 disodium phosphate]
Cmax ([1]; choroid, 0.1 mg/ml subconjunctival): 2.3 µM | Cmax ([1]; choroid, 1 mg/ml subconjunctival): 1.9 µM | Cmax ([1]; choroid, 10 mg/ml subconjunctival): 188 µM | Cmax ([1]; choroid, 100 mg/ml subconjunctival): 908 µM | Concentration of drug delivered ([1]; cornea, retina and choroid, 100, 10 and 1 mg/ml, subconjunctival): > 1 µM | Cmax ([1]; cornea, 0.1 mg/ml subconjunctival): 1.5 µM | Cmax ([1]; cornea, 1 mg/ml subconjunctival): 13 µM | Cmax ([1]; cornea, 10 mg/ml subconjunctival): 143 µM | Cmax ([1]; cornea, 100 mg/ml subconjunctival): 761 µM | Cmax ([1]; plasma, 0.1 mg/ml subconjunctival): 0.017 µM | Cmax ([1]; plasma, 1 mg/ml subconjunctival): 0.025 µM | Cmax ([1]; plasma, 10 mg/ml subconjunctival): 0.9 µM | Cmax ([1]; plasma, 100 mg/ml subconjunctival): 8 µM | Cmax ([1]; retina, 0.1 mg/ml subconjunctival): 0.13 µM | Cmax ([1]; retina, 1 mg/ml subconjunctival): 1.7 µM | Cmax ([1]; retina, 10 mg/ml subconjunctival): 39.6 µM | Cmax ([1]; retina, 100 mg/ml subconjunctival): 174 µM | Time of highest concentrations of drug in the eye ([1]; subconjunctival injection): within the first hour | Cmax ([1]; vitreous, 0.1 mg/ml subconjunctival): 0.005 µM | Cmax ([1]; vitreous, 1 mg/ml subconjunctival): 0.02 µM | Cmax ([1]; vitreous, 10 mg/ml subconjunctival): 2.1 µM | Cmax ([1]; vitreous, 100 mg/ml subconjunctival): 15.7 µM | Cmax ([2]; aqueous humor, 1 mg/ml intravitreal): 0.15 µM | Cmax ([2]; aqueous humor, 10 mg/ml intravitreal): 0.79 µM | Cmax ([2]; aqueous humor, 100 mg/ml intravitreal): 460 µM | Cmax ([2]; cornea, 1 mg/ml intravitreal): 95 µM | Cmax ([2]; cornea, 10 mg/ml intravitreal): 969 µM | Cmax ([2]; cornea, 100 mg/ml intravitreal): 5870 µM | Time of highest concentrations of drug in the eye ([2]; intravitreal injection): within the first hour | Cmax ([2]; plasma, 1 mg/ml intravitreal): 0.4 µM | Cmax ([2]; plasma, 10 mg/ml intravitreal): 0.2 µM | Cmax ([2]; plasma, 100 mg/ml intravitreal): 0.78 µM | Cmax ([2]; retina, 1 mg/ml intravitreal): 160 µM | Cmax ([2]; retina, 10 mg/ml intravitreal): 1980 µM | Cmax ([2]; retina, 100 mg/ml intravitreal): 10700 µM | Concentration of drug delivered ([2]; retina, all concentrations tested, intravitreal): > 1 µM | Cmax ([2]; sclera, 1 mg/ml intravitreal): 19 µM | Cmax ([2]; sclera, 10 mg/ml intravitreal): 153 µM | Cmax ([2]; sclera, 100 mg/ml intravitreal): 16100 µM | Cmax ([2]; vitreous, 1 mg/ml intravitreal): 75 µM | Cmax ([2]; vitreous, 10 mg/ml intravitreal): 757 µM | Cmax ([2]; vitreous, 100 mg/ml intravitreal): 10000 µM | Reduction of vessels [3]: ≥ 40% | Average Vessel Lumen Area ([4]; 10 mg/kg): 0.01186 mm^2 | Average Vessel Lumen Area ([4]; 20 mg/kg): 0.01101 mm^2 | Average Vessel Lumen Area ([4]; 100 mg/kg IP): 0.007612 mm^2 | Less vascular lumen area compared to saline ([4]; 100 mg/kg/day IP): approximately 50% | Number of nuclei penetrating the inner limiting membrane [5]: significantly reduced
